Results published in patent US20070161547A1, “Modulation of survivin expression” (priority 2003, published 2007).
Oligonucleotides are written 5' to 3', each unit as a sugar letter and its base; * is a phosphorothioate linkage, no mark a phosphodiester; rarer units and linkages stand in square brackets, end groups in braces. Plain capitals give the bases only. e = 2'-O-(2-methoxyethyl) (MOE); m = 2'-O-methyl; r = 2'-OH (RNA)

These substances were tested on human survivin mRNA (assay: Inhibition of human survivin mRNA expression in HeLa cells, real-time quantitative PCR). Conditions: Table 11; 0.2 nM; 16 h; averages from two experiments.
Type: cell-based
Method in brief: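 HeLa cells in DMEM with 10% FBS treated with antisense oligonucleotides; survivin mRNA quantified by one-step real-time RT-PCR (RT 30 min at 48 °C, 40 two-step cycles) with a FAM/TAMRA probe, GAPDH measured alongside. Percent inhibition read from a standard curve of untreated-control mRNA dilutions.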
“339048_346294 (antisense AUUUGAAAAUGUUGAUCUCC; sense rA*rGrG*rArG*rArU*rCrA*rArC*rArU*rUrU*rUrC*rArA*rA; siRNA; antisense: unmodified RNA)” was tested, and the “Percentage of Inhibition of survivin expression in HeLa cells” value (“Percentage of Inhibition … in HeLa cells” below) was 39%.

Same assay, conditions: Table 11; 2.0 nM; 16 h; averages from two experiments
In the case of “339048_346294 (antisense AUUUGAAAAUGUUGAUCUCC; sense rA*rGrG*rArG*rArU*rCrA*rArC*rArU*rUrU*rUrC*rArA*rA; siRNA; antisense: unmodified RNA)”, the “Percentage of Inhibition … in HeLa cells” value is reported as 65%.

Same assay, conditions: Table 11; 20.0 nM; 16 h; averages from two experiments
In the case of “339048_346294 (antisense AUUUGAAAAUGUUGAUCUCC; sense rA*rGrG*rArG*rArU*rCrA*rArC*rArU*rUrU*rUrC*rArA*rA; siRNA; antisense: unmodified RNA)”, the “Percentage of Inhibition … in HeLa cells” value is reported as 85%.

Each substance was assayed on survivin protein (assay: IC50 of dsRNA for survivin protein, quantitative Western blot ("W")). Conditions: W (Western blot), HeLa cells.
Type: cell-based, human
Method: Western blot analysis (immunoblot analysis) is carried out using standard methods. Cells are harvested 16-20 hours after oligonucleotide treatment, washed once with PBS, suspended in Laemmli buffer (100 μl/well), boiled for 5 minutes and loaded on a 16% SDS-PAGE gel. Gels are run for 1.5 hours at 150 V, and transferred to membrane for western blotting. Appropriate primary antibody directed to survivin is used, with a radiolabelled or fluorescently labeled secondary antibody directed against the primary antibody species. Bands are visualized using a PHOSPHORIMAGER™ (Molecular Dynamics, Sunnyvale, Calif.).
(§1) For western blot analysis, cells are plated in 10 cm tissue culture dishes (Falcon, #3003) at a density of 7.5×10^5 cells/dish. For RT-PCR analysis, 96-well plates (Corning Incorporated, #3596) are plated with 1×10^4 cells/well. Lipofectin (GIBCO/Invitrogen) transfection reagent is used at a concentration of 3 ul/ml OPTIMEM reduced serum medium (Gibco/Invitrogen)/100 nM siRNA duplex. Lipofectin reagent is incubated with OPTIMEM medium for 30 minutes prior to the addition of siRNA. The desired amount of siRNA is added and mixed. Further 1:1 dilutions are performed in OPTIMEM. Cells are washed twice with 1× phosphate buffered saline and then treated with the siRNA/Lipofectin mixture in OPTIMEM. After a 4 hr incubation period, OPTIMEM medium is replaced with complete growth medium. Cells are harvested after additional 16-20 hrs for Western blot or RT-PCR analysis.
At the end of the incubation period culture medium is removed and cells are washed twice with PBS. Cells are lysed in RIPA buffer (20 mM Tris-HCl, pH 7.4, 5 mM EDTA, 50 mM NaCl, 10 mM Sodium Pyrophosphate, 50 mM Sodium Fluoride, and 1% Nonidet P40) plus Complete™ Mini protease inhibitor tablets (Roche, #1836153) and 1 mM Sodium orthovanadate (Sigma) by directly adding buffer to the plate. Lysates are collected by scrapping, transferred to microfuge tubes and cleared from the cellular debris by centrifugation at 14,000 rpm for 30 minutes at 4° C. Protein concentrations are determined using BCA protein assay yeagents (Pierce). Total cellular protein is subjected to SDS-PAGE and transferred onto Immobilon-P membranes (Millipore, #IPVHO91). Membranes are probed with primary antibodies to survivin (R&D Systems, #AF886) and to β-Actin (Sigma, #A5441). Horseradish peroxidase linked Anti-rabbit Ig, and anti-mouse Ig, antibodies (Pharmacia) are used as secondary antibodies. Antigen-antibody complexes are visualized by incubation of membrane in SuperSigmal West Pico chemiluminescence reagents (Pierce) for 5 minutes followed by capturing of the chemiluminescence using Fluor-S imager (Biorad) equipped with the cool CCD camera. The protein bands of interest for each sample are quantified using Quantity One software (Biorad). The percentage inhibition for each samples are calculated by comparing the survivin/Actin protein ratio for the sample to survivin/Actin protein ratio for the untreated control. The IC50 is derived from the non-linear regression analysis of the percentage inhibition data using GraphPad Prism software (GraphPad Software).
The constructs tested comprise the antisense strand in the 5′-3′ orientation, and the sense strand in the 5′ to 3′ orientation, In Table 15, “D” is dose response (mRNA levels) and “W” is Western blot. All internucleoside linkages are phosphodiester unless otherwise noted by a lowercase “s” indicating a phosphorothioate linkage.
With “339066_339096 (antisense AAAGGAUUUAGGCCACUGCC; sense GGCAGUGGCCUAAAUCCUUU; siRNA; unmodified RNA)” the IC50 was 1.72 nM.
In the case of “339054_339084 (antisense CAACAUGAGGUCCAGACACA; sense UGUGUCUGGACCUCAUGUUG; siRNA; unmodified RNA)”, the IC50 is reported as ≥ 100 nM.
With “339050_339080 (antisense AGAAGCACCUCUGGUGCCAC; sense GUGGCACCAGAGGUGCUUCU; siRNA; unmodified RNA)” the IC50 was ≥ 100 nM.
Substance “339044_339074 (antisense AGGGCUGCCAGGCAGGGGGC; sense GCCCCUGCCUGGCAGCCCU; siRNA; listed as RNA, chemistry not fully specified)” has an IC50 of 5.3 nM.
Work on “339059_339089 (antisense GCUAUUCUGUGAAUUAACAA; sense UUGUUAAUUCACAGAAUAGC; siRNA; unmodified RNA)” yielded an IC50 of 6.41 nM.
For “339046_339076 (antisense AACCCUGGAAGUGGUGCAGC; sense GCUGCACCACUUCCAGGGUU; siRNA; unmodified RNA)”, the IC50 was 3.5 nM.

What follows are substances tested on human survivin mRNA (assay: IC50 of dsRNA for survivin mRNA, dose response by quantitative RT-PCR ("D")). Conditions: D (dose response, mRNA levels), HeLa cells; read-out: IC50.
Type: cell-based
Method: Representative parameters that can be studied include, for example, translation of survivin mRNAs or survivin protein synthesis; effect on surrogate markers; or any other parameter that is indicative of potential dsRNA therapeutic effectiveness that can be conveniently measured in vitro.
as §1
Total RNA is isolated using RNeasy® 96 kit according to recommended protocol (Qiagen). Briefly, cells are washed with 200 ul PBS after removal of growth medium. Following washing, 100 μl buffer RLT is added, plate is shaken vigorously for about 20 seconds. To each well 100 μl 70% ethanol are added and mixed by pipetting up and down three times. Samples are then applied into the wells of the RNeasy 96 plate placed in the QIAvac top base of the QIAvac 96 manifold, which is attached to a vacuum source. Vacuum is applied for 30 seconds or until transfer is complete. To each well 80 μl of DNase I incubation mix (20 mM Tris-HCl, pH 8.4, 2 mM MgCl2, 50 mM KCl and 225 Units/ml DNase I from Invitrogen) is added and incubated at room temperature for 30 minutes. Buffer RW1 (1 ml/well) is added and the vacuum is applied for 30 seconds. Buffer RPE (1 ml/well) is added to each well and vacuum is applied for 30 seconds. Washing steps with buffer RW1 and RPE1 are repeated once more. The plate is then removed from the manifold and blotted dry on paper towels. The plate is placed back in the QIAvac manifold and the vacuum is applied for 10 minutes. To elute RNA 30 μl of RNase-free water is added directly onto the membrane of each well, incubated for 1 minutes and vacuum is applied for 30 seconds. In order to maximize the recovery of total RNA the elution step is repeated with additional 30 μl/well RNase-free water.
Quantitation of survivin and GAPDH mRNA levels is determined by real-time quantitative RT-PCR using the ABI PRISM® 7900 Sequence Detection System (Applied Biosystems). RT-PCR reactions are carried out by adding 15 ul of TaqMan One Step PCR Master Mix (Applied Biosystems, #4309169) reagents (containing 100 nM each of forward primer and reverse primer, and 200 nM probe) to 96-well plates with 10 μl total RNA. For human survivin, the forward PCR primer is: 5′[…]3′ (SEQ ID NO: 186), and the reverse primer is: 5′[…]3′ (SEQ ID NO: 187). The survivin TaqMan® probe used is 5′(FAM)[…]3′ (SEQ ID NO: 188) (Biosearch Technologies, Inc.). This primer-probe set, designed to SEQ ID No 14 was used for all experiments in Examples 15 to the end. For human GAPDH, TaqMan GAPDH Control Reagent Kit is used (Applied Biosystems, #402869). The percentage inhibition for each samples are calculated by comparing the survivin/GAPDH mRNA ratio for the sample to survivin/GAPDH mRNA ratio for the untreated control. The IC50 is derived from the non-linear regression analysis of the percentage inhibition data using GraphPad Prism software (GraphPad Software).
The constructs tested comprise the antisense strand in the 5′-3′ orientation, and the sense strand in the 5′ to 3′ orientation, In Table 15, “D” is dose response (mRNA levels) and “W” is Western blot. […]
“339048_346294 (antisense AUUUGAAAAUGUUGAUCUCC; sense rA*rGrG*rArG*rArU*rCrA*rArC*rArU*rUrU*rUrC*rArA*rA; siRNA; antisense: unmodified RNA)” showed an IC50 of 0.24 nM.

Same assay, conditions: Table 16; cell line not given; read-out: IC50 (nM) mRNA, dsRNA to human survivin
“ISIS 352507_352514: blunt-ended siRNA duplex: antisense 352507, sense 352514 (antisense mUrUmUrGmArAmArAmUrGmUrUmGrAmUrCmUrCmC; sense GGAGAUCAACAUUUUCAAA; sense: sugars from the 5' end rererererererererer, all phosphodiester, methylation of C and T or U not given here)” showed an IC50 of 0.21 nM.
Work on “ISIS 353539_343868: dsRNA duplex: antisense 353539, sense 343868 (antisense UUUGAAAAUGUUGAUCUCC; sense GGAGAUCAACAUUUUCAAA; chemical modifications, chemistry not fully specified)” yielded an IC50 of 0.13 nM.
For “ISIS 352507_346287: dsRNA duplex: antisense 352507, sense 346287 (antisense mUrUmUrGmArAmArAmUrGmUrUmGrAmUrCmUrCmC; sense rG*rG*rA*rG*rA*rU*rC*rA*rA*rC*rA*rU*rU*rU*rU*rC*rA*rA*rA)”, the IC50 was 0.8 nM.
Work on “ISIS 352506_352514: blunt-ended siRNA duplex: antisense 352506, sense 352514 (antisense mUrUrUrGrAmAmArArUmGrUrUrGrArUrCmUmCmC; sense GGAGAUCAACAUUUUCAAA; sense: sugars from the 5' end rererererererererer, all phosphodiester, methylation of C and T or U not given here)” yielded an IC50 of 0.12 nM.
“ISIS 353538_343868: dsRNA duplex: antisense 353538 (4'-thio), sense 343868 (unmodified) (antisense UUUGAAAAUGUUGAUCUCC; sense GGAGAUCAACAUUUUCAAA; antisense: all phosphodiester, sugars by position and methylation of C not given here; sense: RNA, phosphodiester; antisense has 4'-thioribose at some positions, positions stated inconsistently, further chemistry not fully specified)” showed an IC50 of 0.16 nM.
“ISIS 352507_352512: blunt-ended siRNA duplex: antisense 352507, sense 352512 (antisense mUrUmUrGmArAmArAmUrGmUrUmGrAmUrCmUrCmC; sense mGmGmAmGmAmUmCmAmAmCmAmUmUmUmUmCmAmAmA)” showed an IC50 of 0.04 nM.
“ISIS 353540_343868: dsRNA duplex: antisense 353540, sense 343868 (antisense UUUGAAAAUGUUGAUCUCC; sense GGAGAUCAACAUUUUCAAA; chemical modifications, chemistry not fully specified)” was tested, and the IC50 was 0.11 nM.
“ISIS 352507_352511: blunt-ended siRNA duplex: antisense 352507, sense 352511 (antisense mUrUmUrGmArAmArAmUrGmUrUmGrAmUrCmUrCmC; sense GGAGAUCAACAUUUUCAAA; sense: all phosphodiester, sugars by position and methylation of C not given here; further chemistry not fully specified)” gave an IC50 of 0.24 nM.
“ISIS 355710_343868: dsRNA duplex: antisense 355710, sense 343868 (antisense UUUGAAAAUGUUGAUCUCC; sense GGAGAUCAACAUUUUCAAA; chemical modifications, chemistry not fully specified)” gave an IC50 of 0.1 nM.
For “ISIS 346284_346287: blunt-ended siRNA 19 PO-PS/PS: antisense 346284, sense 346287 (antisense rUrU*rUrG*rArA*rArA*rUrG*rUrU*rGrA*rUrC*rUrC*rC; sense rG*rG*rA*rG*rA*rU*rC*rA*rA*rC*rA*rU*rU*rU*rU*rC*rA*rA*rA)”, the IC50 was 3.24 nM.
